From the NIST ThermoML archive (doi:10.1016/j.fluid.2011.06.012)
± gives the expanded uncertainty stated by the source.

Key:
[1] = Molar enthalpy of transition or fusion; details: DSC

## CCCC[N+]1(C)CCCC1.N#C[S-] [1-butyl-1-methylpyrrolidinium thiocyanate]
298.15 K, 101.33 kPa, Liquid, Cone and plate viscometry
  viscosity: 109.46 ± 2.2 mPa·s
298.15 K, 101.33 kPa, Liquid, Vibrating tube method
  mass density: 1024.77 ± 2.2 kg/m3
Crystal 1, DTA
  Normal melting temperature: 22.2 ± 0.9 °C
Crystal 2, DTA
  Triple point temperature: 245.3 ± 0.4 K
[1]; Crystal 1
  Molar enthalpy of transition or fusion: 2.06 ± 0.18 kJ/mol
[1]; Crystal 2
  Molar enthalpy of transition or fusion: 8.68 ± 0.27 kJ/mol
